Data on 8 compounds can be found in patent publication US8673968B2, “Progesterone antagonists” (Evestra, Inc., priority 2009, dated 2014).

Where only a bound is given, the exact number is not on record here.

In assay [1] the target is T1, progesterone receptor-LBD (Homo sapiens, UniProt P06401).
T1 construct: host or cells: HEK 293T (progesterone receptor-LBD-UAS-bla)
T1 sequence (P06401 679-913 limits assumed): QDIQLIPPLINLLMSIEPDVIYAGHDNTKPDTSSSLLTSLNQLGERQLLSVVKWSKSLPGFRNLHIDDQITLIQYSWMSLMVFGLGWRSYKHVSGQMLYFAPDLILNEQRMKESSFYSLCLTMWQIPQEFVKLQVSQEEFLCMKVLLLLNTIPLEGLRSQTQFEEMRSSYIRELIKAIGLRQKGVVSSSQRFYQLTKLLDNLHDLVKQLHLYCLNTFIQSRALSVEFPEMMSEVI
Put plainly: Progesterone Antagonist Screen, activated by control agonist R5020 (GENEBLAZER beta-lactamase reporter). Format: cell-based. Particulars: progesterone receptor-LBD-UAS-bla HEK 293T cells; control agonist R5020 at EC80; read-out: Progesterone Antagonist Inhibition IC50. On the procedure:
(§1) Determination of the agonist/antagonist nature of the test compounds was carried out using Invitrogen's SELECTSCREEN, a cell-based nuclear receptor profiling service which uses GENEBLAZER a beta-lactamase reporter technology. This assay uses a Beta-lactamase cDNA under transcriptional control of an Upstream Activator Sequence (UAS). The UAS is activated by the GAL4 transcription factor DNA binding domain (DBD), which is expressed as a fusion protein with the target receptor ligand binding domain (LBD). Upon ligand binding, the GAL4(DBD)-NR(LDB) binds to the UAS, which controls transcription of Beta-lactamase. Beta-lactamase cleaves a special engineered fluorescent substrate which results in a change in the measured fluorescence wavelength.
The generalized protocol used for the Progesterone Antagonist Screen, activated by control Agonist R5020 is as follows:
32 μL of cell suspension is added to the wells which is then pre-incubated at 37 C/5% CO2 in a humidified incubator with test compounds and control antagonist titration for 30 minutes. 4 μL of a 10× control agonist (see above) at the predetermined EC80 concentration is added to wells containing the control antagonist or test compounds. The plate is incubated for 16-24 hours at 37 C/5% CO2 in a humidified incubator. 8 μl of 1 μM Substrate Loading Solution is added to each well and the plate is incubated for 2 hours at room temperature. The plate is then read on a fluorescence plate reader (Tecan Safire).

In assay [2] the target is T1, progesterone receptor-LBD. Kind of assay: Progesterone Agonist screen (SELECTSCREEN GENEBLAZER beta-lactamase reporter). Particulars: progesterone receptor-LBD-UAS-bla HEK 293T cells; read-out: Progesterone Agonist Activation IC50. Format: cell-based. On the procedure:
as §1
The plate is incubated for 16-24 hours at 37° C./5% CO2 in a humidified incubator. […] The plate is then read on a fluorescence plate reader (Tecan Safire).

Assay [3] deals with T2, glucocorticoid receptor-LBD (Homo sapiens, UniProt P04150).
T2 construct: host or cells: HEK 293T (glucocorticoid receptor-LBD-UAS-bla)
T2 sequence (P04150 524-758 limits assumed): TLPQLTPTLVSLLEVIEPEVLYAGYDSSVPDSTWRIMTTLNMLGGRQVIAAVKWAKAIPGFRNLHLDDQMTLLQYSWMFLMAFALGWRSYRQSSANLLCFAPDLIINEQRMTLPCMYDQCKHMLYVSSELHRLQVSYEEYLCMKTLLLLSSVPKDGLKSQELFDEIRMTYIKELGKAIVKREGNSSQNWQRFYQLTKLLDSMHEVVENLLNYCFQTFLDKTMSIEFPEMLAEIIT
Put plainly: Glucocorticoid Antagonist Screen activated by control agonist Dexamethasone (GENEBLAZER beta-lactamase reporter). Format: cell-based. Particulars: glucocorticoid receptor-LBD-UAS-bla HEK 293T cells, read-out: Glucocorticoid Antagonist Inhibition IC50. The method, then:
as §1

For assay [4], the system named is progesterone receptor positive breast cancer. Particulars: rat model, recent study; cited from earlier work.

Regarding `COc1ccc(C2CC3(C)C(CCC34OCCC4=C(F)F)C3CCC4=CC(=O)CCC4=C23)cc1` (stereo not drawn) [Compound 1c, 21,21-difluoro-11β-(4′-methoxyphenyl)-17,23-epoxy-19,24-dinor-17α-chola-4,9,20-triene], in assay [1], the IC50 (as a rule, the point on the concentration scale where inhibition reaches its midpoint) worked out at 0.344 nM.
The same measure, in the same setting: with `C=C(C)c1ccc(C2CC3(C)C(CCC34OCCC4=C(F)F)C3CCC4=CC(=O)CCC4=C23)cc1` (stereo not drawn) [Compound 1d, 21,21-difluoro-11β-(4′-isopropenylphenyl)-17,23-epoxy-19,24-dinor-17α-chola-4,9,20-triene] the figure was 0.413 nM.
As to `CC(=O)c1ccc([C@H]2C[C@@]3(C)[C@@H](CC[C@@]3(O)C(F)(F)C(F)(F)F)[C@@H]3CCC4=CC(=O)CCC4=C32)cc1` [ZK 230211, Lonaprisan, reference compound], the IC50 in assay [1] was 0.798 nM; in assay [2], more than 10 nM; in assay [3] it was more than 10 nM.
Turning to `CN(C)c1ccc(C2CC3(C)C(CCC34OCCC4=C(F)F)C3CCC4=CC(=O)CCC4=C23)cc1` (stereo not drawn) [Compound 1b, 21,21-difluoro-11β-[4′-(dimethylamino)phenyl]-17,23-epoxy-19,24-dinor-17α-chola-4,9,20-triene], the IC50 in assay [1] is 0.178 nM.
Take `COCC(=O)[C@@]1(OC(C)=O)CC[C@H]2[C@@H]3CCC4=CC(=O)CCC4=C3[C@@H](c3ccc(N(C)C)cc3)C[C@@]21C` [PROELLEX]: in assay [4], the “development of new tumors” value is recorded as “decrease in the development of new tumors” and the tumor size entry was “regression of tumor size”.
`CC12CC(c3ccc(-c4ccoc4)cc3)C3=C4CCC(=O)C=C4CCC3C1CCC21OCCC1=C(F)F` (stereo not shown) [Compound 1f]: the IC50 in assay [1] was 0.864 nM.
As to `CC(=O)c1ccc(C2CC3(C)C(CCC34OCCC4=C(F)F)C3CCC4=CC(=O)CCC4=C23)cc1` (stereo not drawn) [Compound 1a, 21,21-difluoro-11β-(4′-acetyl)phenyl-17,23-epoxy-19,24-dinor-17α-chola-4,9,20-triene], the figures for the IC50 in assay [1], in assay [2] and in assay [3] were 0.265 nM, more than 10 nM and more than 10 nM, respectively.
In the case of `CC12CC(c3ccc(-c4cccnc4)cc3)C3=C4CCC(=O)C=C4CCC3C1CCC21OCCC1=C(F)F` (stereo not drawn) [Compound 1e, 21,21-difluoro-11β-[4′-(3′-pyridyl)phenyl]-17,23-epoxy-19,24-dinor-17α-chola-4,9,20-triene], the IC50 in assay [1] worked out at 0.28 nM.
